Measured values: patent publication US8940724B2, “Quinoline derivitives and their uses” (Amgen Inc., priority 2009, dated 2015)
pKi: −log10 of the molar value.

The molecules below were run against T1, PI3Kδ (Homo sapiens, UniProt O00329) (assay: PI3Kδ Alphascreen assay).
T1 construct: Full length p110 subunits of PI3k α, β and δ, N-terminally labeled with polyHis tag; polyHis (N); made in house; host or cells: Sf9 insect cells (baculovirus)
Assay type: biochemical

T1 sequence (O00329 whole entry): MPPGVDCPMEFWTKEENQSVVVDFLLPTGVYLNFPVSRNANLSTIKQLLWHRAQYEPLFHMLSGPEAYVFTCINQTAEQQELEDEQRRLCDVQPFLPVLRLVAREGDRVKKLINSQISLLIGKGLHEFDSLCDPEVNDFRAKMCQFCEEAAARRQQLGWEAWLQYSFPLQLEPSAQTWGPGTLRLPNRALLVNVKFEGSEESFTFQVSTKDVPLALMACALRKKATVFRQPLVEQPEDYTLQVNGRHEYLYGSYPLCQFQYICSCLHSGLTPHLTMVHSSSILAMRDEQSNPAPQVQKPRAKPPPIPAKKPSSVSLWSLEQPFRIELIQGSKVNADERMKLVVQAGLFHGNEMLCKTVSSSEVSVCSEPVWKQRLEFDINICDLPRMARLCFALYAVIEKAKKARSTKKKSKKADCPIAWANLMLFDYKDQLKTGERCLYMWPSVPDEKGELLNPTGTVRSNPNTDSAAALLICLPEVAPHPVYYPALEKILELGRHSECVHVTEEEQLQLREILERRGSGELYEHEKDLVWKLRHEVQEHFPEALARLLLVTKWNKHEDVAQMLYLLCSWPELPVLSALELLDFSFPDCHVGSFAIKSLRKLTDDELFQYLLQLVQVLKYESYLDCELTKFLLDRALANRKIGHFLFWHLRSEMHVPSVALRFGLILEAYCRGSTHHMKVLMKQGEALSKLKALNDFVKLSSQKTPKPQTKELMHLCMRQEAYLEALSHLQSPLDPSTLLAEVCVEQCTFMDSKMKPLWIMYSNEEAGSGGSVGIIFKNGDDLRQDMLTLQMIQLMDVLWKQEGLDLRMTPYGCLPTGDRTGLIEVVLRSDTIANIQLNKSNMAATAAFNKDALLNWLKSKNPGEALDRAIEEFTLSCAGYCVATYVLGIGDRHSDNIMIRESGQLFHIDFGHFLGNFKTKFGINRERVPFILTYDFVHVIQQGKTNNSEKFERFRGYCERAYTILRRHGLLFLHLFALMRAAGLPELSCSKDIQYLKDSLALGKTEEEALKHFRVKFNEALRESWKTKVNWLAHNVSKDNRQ
T1 sequence (P27986 whole entry partner): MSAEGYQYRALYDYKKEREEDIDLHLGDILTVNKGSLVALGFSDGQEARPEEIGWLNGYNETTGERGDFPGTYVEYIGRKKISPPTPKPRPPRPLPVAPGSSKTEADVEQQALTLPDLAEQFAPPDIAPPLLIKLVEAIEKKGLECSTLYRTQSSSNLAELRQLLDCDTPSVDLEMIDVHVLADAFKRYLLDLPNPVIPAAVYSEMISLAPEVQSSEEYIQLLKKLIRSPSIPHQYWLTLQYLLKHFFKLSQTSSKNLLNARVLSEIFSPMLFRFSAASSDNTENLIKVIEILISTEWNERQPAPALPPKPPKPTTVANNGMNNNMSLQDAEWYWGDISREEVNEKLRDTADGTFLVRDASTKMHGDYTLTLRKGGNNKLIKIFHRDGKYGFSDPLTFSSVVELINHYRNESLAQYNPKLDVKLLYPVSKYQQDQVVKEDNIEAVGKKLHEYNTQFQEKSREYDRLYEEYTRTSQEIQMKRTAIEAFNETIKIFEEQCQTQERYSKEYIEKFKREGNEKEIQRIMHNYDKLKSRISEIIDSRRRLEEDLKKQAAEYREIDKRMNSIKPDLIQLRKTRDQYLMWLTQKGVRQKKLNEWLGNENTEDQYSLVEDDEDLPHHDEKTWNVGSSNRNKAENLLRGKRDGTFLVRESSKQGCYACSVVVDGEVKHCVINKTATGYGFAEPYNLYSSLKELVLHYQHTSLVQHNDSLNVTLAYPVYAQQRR

Compound | pKi
Cc1c(-c2ccc(N3CCNCC3)nc2)nc2cc(F)cc(F)c2c1Nc1cncc(N2CCOCC2)c1 [5,7-difluoro-3-methyl-N-(5-(4-morpholinyl)-3-pyridinyl)-2-(6-(1-piperazinyl)-3-pyridinyl)-4-quinolinamine] | 6.36
Cc1c(-c2ccc(N3CCCCC3)nc2)nc2cc(F)cc(F)c2c1Nc1cncc(N2CCOCC2)c1 [5,7-difluoro-3-methyl-N-(5-(4-morpholinyl)-3-pyridinyl)-2-(6-(1-piperidinyl)-3-pyridinyl)-4-quinolinamine] | 6.29
Cc1c(-c2ccc(N3CCOCC3)nc2)nc2cc(F)cc(F)c2c1Nc1cncc(N2CCOCC2)c1 [5,7-difluoro-3-methyl-N-(5-(4-morpholinyl)-3-pyridinyl)-2-(6-(4-morpholinyl)-3-pyridinyl)-4-quinolinamine] | 6.35
Cc1c(N2CCN(CC(F)(F)F)CC2)nc2cc(F)cc(F)c2c1N(CC(F)(F)F)c1cncc(N2CCOCC2)c1 [5,7-difluoro-3-methyl-N-(5-(4-morpholinyl)-3-pyridinyl)-N-(2,2,2-trifluoroethyl)-2-(4-(2,2,2-trifluoroethyl)-1-piperazinyl)-4-quinolinamine] | 6.31
Cc1c(-c2cccnc2)nc2cc(F)cc(F)c2c1Nc1cc(N2CCOC[C@H]2C)cnc1N1CCOCC1 [5,7-difluoro-3-methyl-N-(5-((3R)-3-methyl-4-morpholinyl)-2-(4-morpholinyl)-3-pyridinyl)-2-(3-pyridinyl)-4-quinolinamine] | 7.16
Cc1c(-c2cccnc2)nc2cc(F)cc(F)c2c1Nc1cc(N2CCOC[C@@H]2C)cnc1N1CCOCC1 [5,7-difluoro-3-methyl-N-(5-((3S)-3-methyl-4-morpholinyl)-2-(4-morpholinyl)-3-pyridinyl)-2-(3-pyridinyl)-4-quinolinamine] | 7.67
COc1ccccc1-c1ncc(N2CCOCC2)cc1Nc1c(C)c(-c2ccccn2)nc2cc(F)cc(F)c12 [5,7-difluoro-N-(2-(2-methoxyphenyl)-5-(4-morpholinyl)-3-pyridinyl)-3-methyl-2-(2-pyridinyl)-4-quinolinamine] | 8.07
COc1cc(C)c(-c2ncc(N3CCOCC3)cc2Nc2c(C)c(-c3ccccn3)nc3cc(F)cc(F)c23)c(C)c1 [5,7-difluoro-N-(2-(4-methoxy-2,6-dimethylphenyl)-5-(4-morpholinyl)-3-pyridinyl)-3-methyl-2-(2-pyridinyl)-4-quinolinamine] | 9.01
COc1ccc(-c2ncc(N3CCOCC3)cc2Nc2c(C)c(-c3cc(C)ccn3)nc3cc(F)cc(F)c23)cc1 [5,7-difluoro-N-(2-(4-methoxyphenyl)-5-(4-morpholinyl)-3-pyridinyl)-3-methyl-2-(4-methyl-2-pyridinyl)-4-quinolinamine] | 8.22
COc1cncc(-c2ccc(N3CCOCC3)cc2Nc2c(C)c(-c3ccccn3)nc3cc(F)cc(F)c23)c1 [5,7-difluoro-N-(2-(5-methoxy-3-pyridinyl)-5-(4-morpholinyl)-phenyl)-3-methyl-2-(2-pyridinyl)-4-quinolinamine] | 9.20

Next, values leading:

pKi | Compound
7.48 | Cc1c(N2CCN(S(=O)(=O)c3ccccc3)CC2)nc2cc(F)cc(F)c2c1Nc1cncc(N2CCOCC2)c1 [5,7-difluoro-3-methyl-N-(5-(4-morpholinyl)-3-pyridinyl)-2-(4-(phenylsulfonyl)-1-piperazinyl)-4-quinolinamine]
7.25 | Cc1c(N2CCN(C(=O)C3CCOCC3)CC2)nc2cc(F)cc(F)c2c1Nc1cncc(N2CCOCC2)c1 [5,7-difluoro-3-methyl-N-(5-(4-morpholinyl)-3-pyridinyl)-2-(4-(tetrahydro-2H-pyran-4-ylcarbonyl)-1-piperazinyl)-4-quinolinamine]
7.11 | Cc1c(N2CCN(c3ccccc3)CC2)nc2cc(F)cc(F)c2c1Nc1cncc(N2CCOCC2)c1 [5,7-difluoro-3-methyl-N-(5-(4-morpholinyl)-3-pyridinyl)-2-(4-phenyl-1-piperazinyl)-4-quinolinamine]
7.87 | CCCN1CCN(c2nc3cc(F)cc(F)c3c(Nc3cncc(N4CCOCC4)c3)c2C)CC1 [5,7-difluoro-3-methyl-N-(5-(4-morpholinyl)-3-pyridinyl)-2-(4-propyl-1-piperazinyl)-4-quinolinamine]
